In PubChem BioAssay (NCI):
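Growth conditions: 96-well plates. Treatment: test compound, 48 hours, 5 concentrations. Analysis: linear interpolation between bracketing concentrations; unreached endpoints set to highest concentration. GI50 marks 50% less growth. TGI: total growth inhibition.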

Assays:
Assay in all cases: NCI anticancer screen, dose series, 48 h
DU-145 prostate = system: DU-145 prostate
BT-549 breast = system: BT-549 breast
NCI-H522 lung = system: NCI-H522 lung
SW-620 colon = system: SW-620 colon
T-47D breast = system: T-47D breast
A498 renal = system: A498 renal
ACHN renal = system: ACHN renal
SF-268 CNS = system: SF-268 CNS
A549 NSCLC = system: A549 NSCLC
HCT-15 colon = system: HCT-15 colon
CAKI-1 renal = system: CAKI-1 renal
U251 CNS = system: U251 CNS
COLO 205 colon = system: COLO 205 colon
UACC-62 melanoma = system: UACC-62 melanoma
RPMI-8226 leukemia = system: RPMI-8226 leukemia
MDA-MB-231 breast = system: MDA-MB-231 breast
SNB-19 CNS = system: SNB-19 CNS
SK-MEL-5 melanoma = system: SK-MEL-5 melanoma
OVCAR-5 ovarian = system: OVCAR-5 ovarian
NCI-H460 lung = system: NCI-H460 lung
MDA-MB-435 = system: MDA-MB-435
HCC-2998 colon = system: HCC-2998 colon
MCF7 breast = system: MCF7 breast
HOP-92 NSCLC = system: HOP-92 NSCLC
M14 melanoma = system: M14 melanoma
MALME-3M melanoma = system: MALME-3M melanoma
SR leukemia = system: SR leukemia
HL-60(TB) leukemia = system: HL-60(TB) leukemia
NCI/ADR-RES ovarian = system: NCI/ADR-RES ovarian
SF-295 CNS = system: SF-295 CNS
UACC-257 melanoma = system: UACC-257 melanoma
KM12 colon = system: KM12 colon
MOLT-4 leukemia = system: MOLT-4 leukemia
SK-MEL-2 melanoma = system: SK-MEL-2 melanoma
NCI-H226 lung = system: NCI-H226 lung
SK-OV-3 ovarian = system: SK-OV-3 ovarian
HS 578T breast = system: HS 578T breast
OVCAR-8 ovarian = system: OVCAR-8 ovarian
HT29 colon = system: HT29 colon
TK-10 renal = system: TK-10 renal
HCT-116 colon = system: HCT-116 colon
RXF 393 renal = system: RXF 393 renal
SF-539 CNS = system: SF-539 CNS
CCRF-CEM leukemia = system: CCRF-CEM leukemia
IGROV1 ovarian = system: IGROV1 ovarian
HOP-62 NSCLC = system: HOP-62 NSCLC
SK-MEL-28 melanoma = system: SK-MEL-28 melanoma
786-0 renal = system: 786-0 renal
UO-31 renal = system: UO-31 renal
SN12C renal = system: SN12C renal
OVCAR-3 ovarian = system: OVCAR-3 ovarian
PC-3 prostate = system: PC-3 prostate
OVCAR-4 ovarian = system: OVCAR-4 ovarian
SNB-75 CNS = system: SNB-75 CNS
K-562 leukemia = system: K-562 leukemia
NCI-H23 lung = system: NCI-H23 lung

## CN1CCCCC1CCN1c2ccccc2Sc2ccc(Cl)cc21 (stereo unspecified)
DU-145 prostate
  GI50: 5.5 µM
  TGI: 17.6 µM
BT-549 breast
  GI50: 10.4 µM
  TGI: 23.3 µM
NCI-H522 lung
  GI50: 2.31 µM
  TGI: 7.37 µM
SW-620 colon
  GI50: 2.87 µM
  TGI: 10.1 µM
T-47D breast
  GI50: 4.25 µM
  TGI: 18.8 µM
A498 renal
  GI50: 2.7 µM
  TGI: 10.8 µM
ACHN renal
  GI50: 3.3 µM
  TGI: 12.9 µM
SF-268 CNS
  GI50: 2.99 µM
  TGI: 8.85 µM
A549 NSCLC
  GI50: 3.31 µM
  TGI: 11.8 µM
HCT-15 colon
  GI50: 2.93 µM
  TGI: 11.7 µM
CAKI-1 renal
  GI50: 3.63 µM
  TGI: 15.8 µM
U251 CNS
  GI50: 2.59 µM
  TGI: 6.76 µM
COLO 205 colon
  GI50: 2.24 µM
  TGI: 4.83 µM
UACC-62 melanoma
  GI50: 2.16 µM
  TGI: 5.61 µM
RPMI-8226 leukemia
  GI50: 3.17 µM
  TGI: 9.29 µM
MDA-MB-231 breast
  GI50: 2.09 µM
  TGI: 6.32 µM
SNB-19 CNS
  GI50: 6.7 µM
  TGI: 21.5 µM
SK-MEL-5 melanoma
  GI50: 1.7 µM
  TGI: 3.25 µM
OVCAR-5 ovarian
  GI50: 3.65 µM
  TGI: 14 µM
NCI-H460 lung
  GI50: 2.77 µM
  TGI: 8.44 µM
MDA-MB-435
  GI50: 1.86 µM
  TGI: 4.04 µM
HCC-2998 colon
  GI50: 2.5 µM
  TGI: 5.85 µM
MCF7 breast
  GI50: 2.68 µM
  TGI: 9 µM
HOP-92 NSCLC
  GI50: 1.35 µM
  TGI: 5.18 µM
M14 melanoma
  GI50: 2.02 µM
  TGI: 3.97 µM
MALME-3M melanoma
  GI50: 2.1 µM
  TGI: 4.25 µM
SR leukemia
  GI50: 3.2 µM
HL-60(TB) leukemia
  GI50: 2.66 µM
  TGI: 6.05 µM
NCI/ADR-RES ovarian
  GI50: 2.89 µM
  TGI: 7.62 µM
SF-295 CNS
  GI50: 3.32 µM
  TGI: 13.5 µM
UACC-257 melanoma
  GI50: 2.45 µM
  TGI: 5.52 µM
KM12 colon
  GI50: 2.77 µM
  TGI: 7.38 µM
MOLT-4 leukemia
  GI50: 3.2 µM
  TGI: 10.2 µM
SK-MEL-2 melanoma
  GI50: 3.06 µM
  TGI: 8.97 µM
NCI-H226 lung
  GI50: 12.9 µM
  TGI: 32.1 µM
SK-OV-3 ovarian
  GI50: 3.69 µM
  TGI: 13.7 µM
HS 578T breast
  GI50: 2.25 µM
  TGI: 8.79 µM
OVCAR-8 ovarian
  GI50: 3.83 µM
  TGI: 12.5 µM
HT29 colon
  GI50: 3.17 µM
  TGI: 11.1 µM
TK-10 renal
  GI50: 2.27 µM
  TGI: 7.09 µM
HCT-116 colon
  GI50: 2.57 µM
  TGI: 6.72 µM
RXF 393 renal
  GI50: 3.18 µM
  TGI: 8.47 µM
SF-539 CNS
  GI50: 2.29 µM
  TGI: 5.42 µM
CCRF-CEM leukemia
  GI50: 3.81 µM
  TGI: 13.5 µM
IGROV1 ovarian
  GI50: 3.24 µM
  TGI: 10.6 µM
HOP-62 NSCLC
  GI50: 10.1 µM
  TGI: 24.2 µM
SK-MEL-28 melanoma
  GI50: 2.23 µM
  TGI: 5.9 µM
786-0 renal
  GI50: 3.85 µM
  TGI: 14.5 µM
UO-31 renal
  GI50: 2.92 µM
  TGI: 12.7 µM
SN12C renal
  GI50: 3.65 µM
  TGI: 13.9 µM
OVCAR-3 ovarian
  GI50: 4.04 µM
  TGI: 14.6 µM
PC-3 prostate
  GI50: 3.22 µM
  TGI: 11.7 µM
OVCAR-4 ovarian
  GI50: 3.66 µM
  TGI: 16 µM
SNB-75 CNS
  GI50: 1.54 µM
  TGI: 6.19 µM
K-562 leukemia
  GI50: 2.6 µM
  TGI: 7.57 µM
NCI-H23 lung
  GI50: 10.7 µM
  TGI: 26.8 µM
